Source: ChEMBL document CHEMBL4813977, “Discovery of potent colony-stimulating factor 1 receptor inhibitors by replacement of hinge-binder moieties” (Eur J Med Chem, 2021)
Calls of active or inactive are those of the source. No cut-off for these calls is given here.

Legend:
[1] = target: Mast/stem cell growth factor receptor Kit (Homo sapiens) (UniProt P10721); conditions: dose 10.0 nM
Description: Inhibition of human c-KIT at 10 nM using poly[Glu:Tyr] (4:1) as substrate in presence of [gamma-33P]-ATP by radiometric assay relative to control

[2] = target: Mast/stem cell growth factor receptor Kit (Homo sapiens) (UniProt P10721); conditions: dose 100.0 nM
Description: Inhibition of human c-KIT at 100 nM using poly[Glu:Tyr] (4:1) as substrate in presence of [gamma-33P]-ATP by radiometric assay relative to control

[3] = target: Receptor-type tyrosine-protein kinase FLT3 (Homo sapiens) (UniProt P36888); conditions: dose 10.0 nM
Receptor-type tyrosine-protein kinase FLT3 (Homo sapiens), sequence (P36888 whole entry): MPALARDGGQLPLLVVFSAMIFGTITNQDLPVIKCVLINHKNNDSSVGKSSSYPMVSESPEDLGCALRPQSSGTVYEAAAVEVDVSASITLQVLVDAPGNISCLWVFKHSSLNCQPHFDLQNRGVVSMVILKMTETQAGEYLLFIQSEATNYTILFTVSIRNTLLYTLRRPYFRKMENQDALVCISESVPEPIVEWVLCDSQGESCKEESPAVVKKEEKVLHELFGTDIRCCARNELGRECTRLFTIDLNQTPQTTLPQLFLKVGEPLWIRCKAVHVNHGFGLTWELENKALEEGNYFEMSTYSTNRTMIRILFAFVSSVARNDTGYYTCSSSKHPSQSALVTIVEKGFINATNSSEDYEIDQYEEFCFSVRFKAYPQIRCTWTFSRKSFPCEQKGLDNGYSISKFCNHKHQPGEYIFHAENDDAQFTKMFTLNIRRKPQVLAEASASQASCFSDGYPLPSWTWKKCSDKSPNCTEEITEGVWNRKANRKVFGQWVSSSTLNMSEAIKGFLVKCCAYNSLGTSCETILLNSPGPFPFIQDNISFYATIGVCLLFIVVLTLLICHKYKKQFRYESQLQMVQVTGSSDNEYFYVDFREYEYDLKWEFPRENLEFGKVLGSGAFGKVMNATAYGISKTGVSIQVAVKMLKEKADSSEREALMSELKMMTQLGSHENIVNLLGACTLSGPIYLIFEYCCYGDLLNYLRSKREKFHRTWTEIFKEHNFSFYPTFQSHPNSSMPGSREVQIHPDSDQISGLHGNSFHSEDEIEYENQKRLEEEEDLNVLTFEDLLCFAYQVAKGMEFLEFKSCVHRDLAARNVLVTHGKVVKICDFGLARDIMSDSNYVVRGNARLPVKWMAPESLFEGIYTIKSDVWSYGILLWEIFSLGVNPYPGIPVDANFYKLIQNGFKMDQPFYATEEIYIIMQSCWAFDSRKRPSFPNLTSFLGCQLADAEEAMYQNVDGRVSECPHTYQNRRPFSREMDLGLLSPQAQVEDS

[4] = target: Receptor-type tyrosine-protein kinase FLT3 (Homo sapiens) (UniProt P36888); conditions: dose 100.0 nM
[5] = target: Macrophage colony-stimulating factor 1 receptor (Homo sapiens) (UniProt P07333); conditions: dose 10.0 nM
Macrophage colony-stimulating factor 1 receptor (Homo sapiens), sequence (P07333 whole entry): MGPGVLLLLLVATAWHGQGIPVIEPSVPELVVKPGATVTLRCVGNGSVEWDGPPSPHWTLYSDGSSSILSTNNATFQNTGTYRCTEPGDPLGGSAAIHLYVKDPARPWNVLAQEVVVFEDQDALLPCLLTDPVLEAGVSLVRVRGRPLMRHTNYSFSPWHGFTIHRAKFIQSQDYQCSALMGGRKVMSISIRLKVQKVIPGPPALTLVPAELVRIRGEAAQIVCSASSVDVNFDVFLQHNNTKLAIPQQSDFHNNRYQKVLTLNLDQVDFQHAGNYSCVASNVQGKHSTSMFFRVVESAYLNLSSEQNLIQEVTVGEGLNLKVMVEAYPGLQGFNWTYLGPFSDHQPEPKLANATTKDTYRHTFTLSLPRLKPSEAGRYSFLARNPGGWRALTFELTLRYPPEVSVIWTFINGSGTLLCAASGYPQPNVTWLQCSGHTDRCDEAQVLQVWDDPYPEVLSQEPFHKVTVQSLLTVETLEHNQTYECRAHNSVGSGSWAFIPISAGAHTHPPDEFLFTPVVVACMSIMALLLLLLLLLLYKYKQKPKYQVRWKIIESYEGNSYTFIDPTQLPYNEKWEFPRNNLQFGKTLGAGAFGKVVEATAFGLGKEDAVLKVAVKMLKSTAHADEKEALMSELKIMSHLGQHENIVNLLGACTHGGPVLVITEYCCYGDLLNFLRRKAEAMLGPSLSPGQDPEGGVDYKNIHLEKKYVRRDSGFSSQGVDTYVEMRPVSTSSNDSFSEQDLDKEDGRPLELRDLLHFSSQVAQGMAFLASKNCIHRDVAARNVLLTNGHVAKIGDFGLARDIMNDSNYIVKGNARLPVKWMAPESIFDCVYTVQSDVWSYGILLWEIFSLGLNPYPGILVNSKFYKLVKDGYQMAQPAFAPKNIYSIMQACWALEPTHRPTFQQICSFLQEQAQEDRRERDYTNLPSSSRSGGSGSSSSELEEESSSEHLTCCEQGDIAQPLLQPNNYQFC
Description: Inhibition of human CSF1R at 10 nM using poly[Glu:Tyr] (4:1) as substrate in presence of [gamma-33P]-ATP by radiometric assay relative to control

[6] = target: Macrophage colony-stimulating factor 1 receptor (Homo sapiens) (UniProt P07333); conditions: dose 100.0 nM
Description: Inhibition of human CSF1R at 100 nM using poly[Glu:Tyr] (4:1) as substrate in presence of [gamma-33P]-ATP by radiometric assay relative to control

[7] = target: T1, Macrophage colony-stimulating factor 1 receptor (Mus musculus) (UniProt P09581); assay: Inhibition of CSF1R phosphorylation in mouse RAW 264.7 cells at 10 to 100 nM preincubated for 5 hrs followed by CSF stimulation for 10 mins by Western blot analysis; format: cell-based; conditions: RAW264.7, dose 10-100 nM, time 310.0 min
T1 sequence (whole entry): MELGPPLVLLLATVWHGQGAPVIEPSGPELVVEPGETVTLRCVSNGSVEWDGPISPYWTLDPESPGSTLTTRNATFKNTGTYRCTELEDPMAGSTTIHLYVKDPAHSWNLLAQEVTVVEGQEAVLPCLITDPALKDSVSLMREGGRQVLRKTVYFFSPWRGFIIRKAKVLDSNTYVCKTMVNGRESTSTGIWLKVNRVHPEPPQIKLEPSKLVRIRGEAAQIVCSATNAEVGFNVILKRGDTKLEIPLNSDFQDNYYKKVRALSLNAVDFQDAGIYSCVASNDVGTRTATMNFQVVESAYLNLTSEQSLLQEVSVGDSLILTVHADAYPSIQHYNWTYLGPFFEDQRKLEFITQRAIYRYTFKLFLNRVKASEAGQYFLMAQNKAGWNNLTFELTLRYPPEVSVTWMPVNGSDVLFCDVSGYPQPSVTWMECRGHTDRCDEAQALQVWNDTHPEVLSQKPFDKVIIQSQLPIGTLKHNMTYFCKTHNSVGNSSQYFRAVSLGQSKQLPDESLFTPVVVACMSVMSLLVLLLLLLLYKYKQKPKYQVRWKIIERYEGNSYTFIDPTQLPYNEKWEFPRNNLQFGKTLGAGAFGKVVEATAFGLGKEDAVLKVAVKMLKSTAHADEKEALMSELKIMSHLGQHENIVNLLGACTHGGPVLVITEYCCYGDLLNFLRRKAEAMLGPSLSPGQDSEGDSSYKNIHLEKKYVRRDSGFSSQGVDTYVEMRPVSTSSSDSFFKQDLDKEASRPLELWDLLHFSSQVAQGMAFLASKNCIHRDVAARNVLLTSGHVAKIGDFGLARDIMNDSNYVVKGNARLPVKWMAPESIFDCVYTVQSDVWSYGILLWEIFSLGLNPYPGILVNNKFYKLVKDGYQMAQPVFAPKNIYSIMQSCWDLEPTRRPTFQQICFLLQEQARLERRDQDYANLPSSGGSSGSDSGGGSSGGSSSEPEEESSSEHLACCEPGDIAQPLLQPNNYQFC

Mast/stem cell growth factor receptor Kit (Homo sapiens), sequence (P10721 whole entry): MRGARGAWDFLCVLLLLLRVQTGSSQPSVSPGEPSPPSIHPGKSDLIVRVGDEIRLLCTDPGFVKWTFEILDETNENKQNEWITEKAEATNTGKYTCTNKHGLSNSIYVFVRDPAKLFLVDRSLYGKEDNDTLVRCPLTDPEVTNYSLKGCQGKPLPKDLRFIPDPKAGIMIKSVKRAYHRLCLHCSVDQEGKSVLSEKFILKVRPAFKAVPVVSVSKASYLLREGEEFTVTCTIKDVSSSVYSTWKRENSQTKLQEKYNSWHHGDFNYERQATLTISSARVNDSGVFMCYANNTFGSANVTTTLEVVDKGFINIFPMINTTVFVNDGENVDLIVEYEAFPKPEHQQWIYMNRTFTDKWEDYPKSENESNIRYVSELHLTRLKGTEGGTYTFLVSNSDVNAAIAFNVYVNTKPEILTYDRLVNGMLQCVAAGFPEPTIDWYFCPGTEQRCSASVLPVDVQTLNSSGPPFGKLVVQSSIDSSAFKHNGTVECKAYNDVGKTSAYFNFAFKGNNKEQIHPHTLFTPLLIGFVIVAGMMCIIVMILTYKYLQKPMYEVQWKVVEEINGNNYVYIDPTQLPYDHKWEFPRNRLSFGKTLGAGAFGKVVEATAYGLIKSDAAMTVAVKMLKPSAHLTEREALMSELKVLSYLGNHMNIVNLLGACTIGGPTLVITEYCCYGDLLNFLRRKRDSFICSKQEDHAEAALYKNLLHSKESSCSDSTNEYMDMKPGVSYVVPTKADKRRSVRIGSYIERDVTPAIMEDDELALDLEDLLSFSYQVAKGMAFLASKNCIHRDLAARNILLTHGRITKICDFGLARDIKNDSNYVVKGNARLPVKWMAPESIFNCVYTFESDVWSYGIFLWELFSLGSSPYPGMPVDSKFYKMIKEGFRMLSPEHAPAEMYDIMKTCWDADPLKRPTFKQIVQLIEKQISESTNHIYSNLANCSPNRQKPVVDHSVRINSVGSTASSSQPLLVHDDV

Row | SMILES | inhibition [1] | inhibition [2] | inhibition [3] | inhibition [4] | inhibition [5] | inhibition [6] | inhibition [7]
1 | Cc1cn(-c2cc(NC(=O)c3ccc(C)c(NC(=O)c4cnc5ccccn45)c3)cc(C(F)(F)F)c2)cn1 | 0% | 33% |  |  |  |  | 
2 | Cc1ccc(NCc2ccc(C(F)(F)F)nc2)cc1NC(=O)c1cnc2cccnn12 | 6% | 25% |  |  |  |  | 
3 | CCN1CCN(Cc2ccc(C(=O)Nc3ccc(C)c(NC(=O)c4cnnc5ccccc45)c3)cc2C(F)(F)F)CC1 | 10% | 40% |  |  |  |  | 
4 | FC(F)(F)c1ccc(CNc2ccc(Cc3c[nH]c4ncc(Cl)cc34)cn2)cn1 | 13% | 51% | 1% | 11% |  |  | 
5 | CNC(=O)c1cc(Oc2ccc3nc(N[C@H]4CCCC[C@H]4O)sc3c2)ccn1 | 2% | 2% | 19% | 20% | 76% | 94% | 
6 | Cc1ccc(NCc2ccc(C(F)(F)F)nc2)cc1NC(=O)c1cnn2ccccc12 | 17% | 45% |  |  |  |  | 
7 | CCN1CCN(Cc2ccc(C(=O)Nc3ccc(C)c(NCc4cnc5ccc(OC)nn45)c3)cc2C(F)(F)F)CC1 | 25% | 63% |  |  |  |  | 
8 | Cc1cn(-c2cc(NC(=O)c3ccc(C)c(Nc4nccc(-c5cccnc5)n4)c3)cc(C(F)(F)F)c2)cn1 | 2% | 33% | 0% | 4% | 14% |  | 
9 | Cc1ccc(NC(=O)c2ccc(C(F)(F)F)nc2)cc1NC(=O)c1cnn2ccccc12 | 30% | 53% |  |  |  |  | Active
10 | CCN1CCN(Cc2ccc(C(=O)Nc3ccc(C)c(NC(=O)c4n[nH]c5ccccc45)c3)cc2C(F)(F)F)CC1 | 43% | 89% |  |  |  |  | 
11 | Cc1ccc(NCc2ccc(C(F)(F)F)nc2)cc1NC(=O)c1cnc2ccccn12 | 14% | 56% |  |  |  |  | 
12 | CCN1CCN(Cc2ccc(C(=O)Nc3ccc(C)c(NC(=O)c4c[nH]cn4)c3)cc2C(F)(F)F)CC1 | 41% | 89% |  |  |  |  | 
13 | Cc1ccc(NC(=O)c2ccc(C(F)(F)F)nc2)cc1NC(=O)c1cnc2cccnn12 | 4% | 32% |  |  |  |  | 
14 | COc1ccc(COc2ccc(Cc3cnc(N)nc3N)cc2OC)cc1 | 4% | 8% | 4% | 11% |  |  | 
15 | Cc1cn(-c2cc(NC(=O)c3ccc(C)c(NC(=O)c4cnc5cccnn45)c3)cc(C(F)(F)F)c2)cn1 | 7% | 50% |  |  |  |  | 

Now from value to molecule:

Row | inhibition [1] | inhibition [2] | inhibition [3] | inhibition [4] | inhibition [5] | inhibition [6] | inhibition [7] | SMILES
16 | 31% | 81% |  |  |  |  |  | CCN1CCN(Cc2ccc(C(=O)Nc3ccc(C)c(NC(=O)c4ncc[nH]4)c3)cc2C(F)(F)F)CC1
17 | 30% | 70% |  |  |  |  |  | CCN1CCN(Cc2ccc(C(=O)Nc3ccc(C)c(NC(=O)c4cnc5ccccn45)c3)cc2C(F)(F)F)CC1
18 | 27% | 64% |  |  |  |  |  | CCN1CCN(Cc2ccc(C(=O)Nc3ccc(C)c(NC(=O)c4cnc5cccnn45)c3)cc2C(F)(F)F)CC1
19 | 96% | 98% |  |  |  |  |  | CCN1CCN(Cc2ccc(NC(=O)c3ccc(C)c(NC(=O)c4cnc5cccnn45)c3)cc2C(F)(F)F)CC1
20 | 10% | 49% |  |  |  |  |  | CCN1CCN(Cc2ccc(C(=O)Nc3ccc(C)c(NC(=O)c4cnc5ncccn45)c3)cc2C(F)(F)F)CC1
21 | 22% | 49% |  |  |  |  |  | CCN1CCN(Cc2ccc(C(=O)Nc3ccc(C)c(NCc4cnc5cccnn45)c3)cc2C(F)(F)F)CC1
22 | 96% | 98% |  |  |  |  |  | CCN1CCN(Cc2ccc(C(=O)Nc3ccc(C)c(NC(=O)c4n[nH]c5ncccc45)c3)cc2C(F)(F)F)CC1
23 | 14% | 54% |  |  |  |  |  | CCN1CCN(Cc2ccc(C(=O)Nc3ccc(C)c(NC(=O)c4ccn(C)n4)c3)cc2C(F)(F)F)CC1
24 | 27% | 73% |  |  |  |  |  | CCN1CCN(Cc2ccc(C(=O)Nc3ccc(C)c(NC(=O)c4cnn5ccccc45)c3)cc2C(F)(F)F)CC1
25 | 0% | 17% |  |  |  |  |  | CCN1CCN(Cc2ccc(C(=O)Nc3ccc(C)c(NC(=O)c4cc[nH]n4)c3)cc2C(F)(F)F)CC1
